In PMC7385619, “A triple action CDK4/6-PI3K-BET inhibitor with augmented cancer cell cytotoxicity” (Cell Discovery, 2020):
Read-outs that look alike come from different tables or passages of the source.

What was measured:
Test in all cases: KINOMEscan assay (Eurofins DiscoverX)
Format in all cases: binding
kinome (kinase panel) [1] = molecular target: T1, kinome (kinase panel) (Homo sapiens, UniProt O14578); conditions: CIT; 1000 nM; read-out: Percent Control
T1 construct: purchased Eurofins DiscoverX

kinome (kinase panel) [2] = molecular target: T2, kinome (kinase panel) (Homo sapiens, UniProt O14920); conditions: IKK-beta (Entrez IKBKB); 1000 nM; read-out: Percent Control
T2 construct: purchased Eurofins DiscoverX

kinome (kinase panel) [3] = molecular target: T3, kinome (kinase panel) (Homo sapiens, UniProt O15530); conditions: PDPK1; 1000 nM; read-out: Percent Control
T3 construct: purchased Eurofins DiscoverX

kinome (kinase panel) [4] = molecular target: T4, kinome (kinase panel) (Homo sapiens, UniProt O43283); conditions: LZK (Entrez MAP3K13); 1000 nM; read-out: Percent Control
T4 construct: purchased Eurofins DiscoverX

kinome (kinase panel) [5] = molecular target: T5, kinome (kinase panel) (Homo sapiens, UniProt O95747); conditions: OSR1 (Entrez OXSR1); 1000 nM; read-out: Percent Control
T5 construct: purchased Eurofins DiscoverX
T5 sequence (O95747 whole entry): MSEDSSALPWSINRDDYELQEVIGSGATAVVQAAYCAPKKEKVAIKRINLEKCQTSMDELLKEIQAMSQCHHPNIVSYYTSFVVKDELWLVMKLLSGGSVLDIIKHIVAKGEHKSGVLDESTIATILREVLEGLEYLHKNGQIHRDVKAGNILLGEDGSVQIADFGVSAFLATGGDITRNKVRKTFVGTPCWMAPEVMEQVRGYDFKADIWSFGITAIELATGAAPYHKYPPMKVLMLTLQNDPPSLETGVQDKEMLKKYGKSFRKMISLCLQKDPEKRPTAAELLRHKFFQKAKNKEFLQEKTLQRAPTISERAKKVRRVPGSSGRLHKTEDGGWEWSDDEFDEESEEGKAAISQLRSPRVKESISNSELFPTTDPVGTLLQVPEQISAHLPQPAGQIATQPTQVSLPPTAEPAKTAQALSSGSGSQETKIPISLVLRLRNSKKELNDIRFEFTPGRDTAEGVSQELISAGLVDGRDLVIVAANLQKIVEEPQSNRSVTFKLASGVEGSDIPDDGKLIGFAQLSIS

kinome (kinase panel) [6] = molecular target: T6, kinome (kinase panel) (Homo sapiens, UniProt O96013); conditions: PAK4; 1000 nM; read-out: Percent Control
T6 construct: purchased Eurofins DiscoverX

kinome (kinase panel) [7] = molecular target: T7, kinome (kinase panel) (Homo sapiens, UniProt P00519, H396P)
T7 construct: purchased Eurofins DiscoverX

kinome (kinase panel) [8] = molecular target: T8, kinome (kinase panel) (Homo sapiens, UniProt P00533); conditions: EGFR; 1000 nM; read-out: Percent Control
T8 construct: purchased Eurofins DiscoverX

kinome (kinase panel) [9] = molecular target: T9, kinome (kinase panel) (Homo sapiens, UniProt P04626); conditions: ERBB2; 1000 nM; read-out: Percent Control
T9 construct: purchased Eurofins DiscoverX

kinome (kinase panel) [10] = molecular target: T10, kinome (kinase panel) (Homo sapiens, UniProt P08581); conditions: MET; 1000 nM; read-out: Percent Control
T10 construct: purchased Eurofins DiscoverX

kinome (kinase panel) [11] = molecular target: T11, kinome (kinase panel) (Homo sapiens, UniProt P11309); conditions: PIM1; 1000 nM; read-out: Percent Control
T11 construct: purchased Eurofins DiscoverX

kinome (kinase panel) [12] = molecular target: T12, kinome (kinase panel) (Homo sapiens, UniProt P15735); conditions: PHKG2; 1000 nM; read-out: Percent Control
T12 construct: purchased Eurofins DiscoverX

kinome (kinase panel) [13] = molecular target: T13, kinome (kinase panel) (Homo sapiens, UniProt P17612); conditions: PKAC-alpha (Entrez PRKACA); 1000 nM; read-out: Percent Control
T13 construct: purchased Eurofins DiscoverX

kinome (kinase panel) [14] = molecular target: T14, kinome (kinase panel) (Homo sapiens, UniProt P29317); conditions: EPHA2; 1000 nM; read-out: Percent Control
T14 construct: purchased Eurofins DiscoverX

kinome (kinase panel) [15] = molecular target: T15, kinome (kinase panel) (Homo sapiens, UniProt P31749); conditions: AKT1; 1000 nM; read-out: Percent Control
T15 construct: purchased Eurofins DiscoverX

kinome (kinase panel) [16] = molecular target: T16, kinome (kinase panel) (Homo sapiens, UniProt P48736); conditions: PIK3CG; 1000 nM; read-out: Percent Control
T16 construct: purchased Eurofins DiscoverX

kinome (kinase panel) [17] = molecular target: T17, kinome (kinase panel) (Homo sapiens, UniProt P50750); conditions: CDK9; 1000 nM; read-out: Percent Control
T17 construct: purchased Eurofins DiscoverX
T17 sequence (P50750 whole entry): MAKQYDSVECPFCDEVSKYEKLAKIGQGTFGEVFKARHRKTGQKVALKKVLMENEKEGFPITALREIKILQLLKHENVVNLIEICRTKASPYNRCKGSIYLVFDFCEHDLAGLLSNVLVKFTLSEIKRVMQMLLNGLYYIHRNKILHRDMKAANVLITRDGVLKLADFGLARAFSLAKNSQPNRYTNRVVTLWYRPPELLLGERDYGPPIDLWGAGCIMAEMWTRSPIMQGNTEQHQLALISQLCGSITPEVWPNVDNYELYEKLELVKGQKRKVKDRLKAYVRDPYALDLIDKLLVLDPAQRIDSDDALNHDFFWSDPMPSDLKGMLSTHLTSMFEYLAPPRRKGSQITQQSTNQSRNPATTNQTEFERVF

kinome (kinase panel) [18] = molecular target: T18, kinome (kinase panel) (Homo sapiens, UniProt P53671); conditions: LIMK2; 1000 nM; read-out: Percent Control
T18 construct: purchased Eurofins DiscoverX

kinome (kinase panel) [19] = molecular target: T19, kinome (kinase panel) (Homo sapiens, UniProt P78362); conditions: SRPK2; 1000 nM; read-out: Percent Control
T19 construct: purchased Eurofins DiscoverX
T19 sequence (P78362 whole entry): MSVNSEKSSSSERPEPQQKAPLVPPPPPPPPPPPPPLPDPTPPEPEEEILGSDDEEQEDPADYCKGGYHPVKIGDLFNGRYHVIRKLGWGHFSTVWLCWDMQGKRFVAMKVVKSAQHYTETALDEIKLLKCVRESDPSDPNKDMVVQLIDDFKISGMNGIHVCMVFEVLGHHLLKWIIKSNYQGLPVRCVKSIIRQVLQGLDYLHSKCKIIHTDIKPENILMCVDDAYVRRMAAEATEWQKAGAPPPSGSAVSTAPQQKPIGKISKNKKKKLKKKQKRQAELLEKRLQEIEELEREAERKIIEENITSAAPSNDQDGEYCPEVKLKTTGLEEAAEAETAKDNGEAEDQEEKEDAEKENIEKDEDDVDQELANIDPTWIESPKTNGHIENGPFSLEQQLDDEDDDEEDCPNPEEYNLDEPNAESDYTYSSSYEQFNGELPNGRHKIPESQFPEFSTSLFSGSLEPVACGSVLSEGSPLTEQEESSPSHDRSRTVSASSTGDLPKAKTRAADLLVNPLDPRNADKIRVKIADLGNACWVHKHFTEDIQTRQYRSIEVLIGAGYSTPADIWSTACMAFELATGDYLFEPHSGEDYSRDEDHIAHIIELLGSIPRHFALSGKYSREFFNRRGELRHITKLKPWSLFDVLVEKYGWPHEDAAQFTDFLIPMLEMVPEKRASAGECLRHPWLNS

kinome (kinase panel) [20] = molecular target: T20, kinome (kinase panel) (Homo sapiens, UniProt Q13555); conditions: CAMK2G; 1000 nM; read-out: Percent Control
T20 construct: purchased Eurofins DiscoverX

kinome (kinase panel) [21] = molecular target: T21, kinome (kinase panel) (Homo sapiens, UniProt Q13976); conditions: PRKG1; 1000 nM; read-out: Percent Control
T21 construct: purchased Eurofins DiscoverX

kinome (kinase panel) [22] = molecular target: T22, kinome (kinase panel) (Homo sapiens, UniProt Q14680); conditions: MELK; 1000 nM; read-out: Percent Control
T22 construct: purchased Eurofins DiscoverX

kinome (kinase panel) [23] = molecular target: T23, kinome (kinase panel) (Homo sapiens, UniProt Q15349); conditions: 1000 nM, read-out: Percent Control
T23 construct: purchased Eurofins DiscoverX
T23 sequence (Q15349 whole entry): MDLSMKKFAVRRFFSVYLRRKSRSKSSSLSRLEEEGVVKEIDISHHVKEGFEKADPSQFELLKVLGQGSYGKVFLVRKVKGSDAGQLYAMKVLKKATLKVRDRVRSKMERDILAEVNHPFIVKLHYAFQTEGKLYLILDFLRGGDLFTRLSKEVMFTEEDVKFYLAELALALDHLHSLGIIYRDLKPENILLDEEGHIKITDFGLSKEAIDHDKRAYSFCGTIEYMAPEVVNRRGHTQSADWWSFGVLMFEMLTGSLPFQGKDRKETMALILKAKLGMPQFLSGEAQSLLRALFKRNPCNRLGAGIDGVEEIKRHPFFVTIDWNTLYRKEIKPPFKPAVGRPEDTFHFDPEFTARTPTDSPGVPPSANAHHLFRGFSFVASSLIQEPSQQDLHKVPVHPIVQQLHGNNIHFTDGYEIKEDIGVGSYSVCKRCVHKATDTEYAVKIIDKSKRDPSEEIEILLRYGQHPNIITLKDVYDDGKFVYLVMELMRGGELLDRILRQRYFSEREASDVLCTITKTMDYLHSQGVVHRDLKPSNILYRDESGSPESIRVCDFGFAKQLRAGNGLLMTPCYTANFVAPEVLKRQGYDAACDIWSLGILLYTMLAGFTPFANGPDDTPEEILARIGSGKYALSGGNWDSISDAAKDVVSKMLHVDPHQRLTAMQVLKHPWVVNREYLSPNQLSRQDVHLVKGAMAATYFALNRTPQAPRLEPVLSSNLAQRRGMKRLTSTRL

kinome (kinase panel) [24] = molecular target: T24, kinome (kinase panel) (Homo sapiens, UniProt Q15746); conditions: MYLK; 1000 nM; read-out: Percent Control
T24 construct: purchased Eurofins DiscoverX

kinome (kinase panel) [25] = molecular target: T25, kinome (kinase panel) (Homo sapiens, UniProt Q16659); conditions: ERK3 (Entrez MAPK6); 1000 nM; read-out: Percent Control
T25 construct: purchased Eurofins DiscoverX

kinome (kinase panel) [26] = molecular target: T26, kinome (kinase panel) (Homo sapiens, UniProt Q16832); conditions: DDR2; 1000 nM; read-out: Percent Control
T26 construct: purchased Eurofins DiscoverX

kinome (kinase panel) [27] = molecular target: T27, kinome (kinase panel) (Homo sapiens, UniProt Q6ZWH5); conditions: NEK10; 1000 nM; read-out: Percent Control
T27 construct: purchased Eurofins DiscoverX
T27 sequence (Q6ZWH5 whole entry): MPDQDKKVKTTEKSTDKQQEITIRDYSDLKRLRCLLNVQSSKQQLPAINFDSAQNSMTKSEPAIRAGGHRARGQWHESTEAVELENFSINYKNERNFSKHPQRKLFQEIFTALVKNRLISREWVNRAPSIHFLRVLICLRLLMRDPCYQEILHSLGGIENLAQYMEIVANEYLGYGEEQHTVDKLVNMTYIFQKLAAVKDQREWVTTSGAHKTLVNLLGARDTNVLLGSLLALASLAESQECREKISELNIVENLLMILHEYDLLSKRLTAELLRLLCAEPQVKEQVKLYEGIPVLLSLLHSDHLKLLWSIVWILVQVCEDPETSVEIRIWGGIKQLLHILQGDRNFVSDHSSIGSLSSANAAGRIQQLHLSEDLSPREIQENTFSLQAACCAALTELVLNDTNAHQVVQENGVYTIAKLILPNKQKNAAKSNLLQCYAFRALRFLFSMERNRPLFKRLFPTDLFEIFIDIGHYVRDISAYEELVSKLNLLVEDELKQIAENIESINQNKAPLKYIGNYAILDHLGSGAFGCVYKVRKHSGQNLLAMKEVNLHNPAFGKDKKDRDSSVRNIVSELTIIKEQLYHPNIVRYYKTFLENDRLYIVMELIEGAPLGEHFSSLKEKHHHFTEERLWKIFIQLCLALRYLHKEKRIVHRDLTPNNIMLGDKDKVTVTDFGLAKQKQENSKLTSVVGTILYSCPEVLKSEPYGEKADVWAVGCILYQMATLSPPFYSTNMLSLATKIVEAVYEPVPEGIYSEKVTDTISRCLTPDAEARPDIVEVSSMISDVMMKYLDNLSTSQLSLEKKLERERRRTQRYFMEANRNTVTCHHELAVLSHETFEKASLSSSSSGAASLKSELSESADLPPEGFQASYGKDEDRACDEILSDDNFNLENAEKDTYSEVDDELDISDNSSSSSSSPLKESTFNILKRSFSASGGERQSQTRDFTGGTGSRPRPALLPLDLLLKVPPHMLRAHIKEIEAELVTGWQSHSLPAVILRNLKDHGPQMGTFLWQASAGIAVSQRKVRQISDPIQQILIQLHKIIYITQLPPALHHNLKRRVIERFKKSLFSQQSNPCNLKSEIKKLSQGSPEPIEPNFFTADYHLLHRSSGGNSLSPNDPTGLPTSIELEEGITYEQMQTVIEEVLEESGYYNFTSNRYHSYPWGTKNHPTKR

kinome (kinase panel) [28] = molecular target: T28, kinome (kinase panel) (Homo sapiens, UniProt Q9BZL6); conditions: PRKD2; 1000 nM; read-out: Percent Control
T28 construct: purchased Eurofins DiscoverX

kinome (kinase panel) [29] = molecular target: T29, kinome (kinase panel) (Homo sapiens, UniProt Q9NQU5); conditions: PAK6; 1000 nM; read-out: Percent Control
T29 construct: purchased Eurofins DiscoverX

kinome (kinase panel) [30] = molecular target: T30, kinome (kinase panel) (Homo sapiens, UniProt Q9NRP7); conditions: STK36; 1000 nM; read-out: Percent Control
T30 construct: purchased Eurofins DiscoverX

kinome (kinase panel) [31] = molecular target: T31, kinome (kinase panel) (Homo sapiens, UniProt Q9UKI8); conditions: TLK1; 1000 nM; read-out: Percent Control
T31 construct: purchased Eurofins DiscoverX
T31 sequence (Q9UKI8 whole entry): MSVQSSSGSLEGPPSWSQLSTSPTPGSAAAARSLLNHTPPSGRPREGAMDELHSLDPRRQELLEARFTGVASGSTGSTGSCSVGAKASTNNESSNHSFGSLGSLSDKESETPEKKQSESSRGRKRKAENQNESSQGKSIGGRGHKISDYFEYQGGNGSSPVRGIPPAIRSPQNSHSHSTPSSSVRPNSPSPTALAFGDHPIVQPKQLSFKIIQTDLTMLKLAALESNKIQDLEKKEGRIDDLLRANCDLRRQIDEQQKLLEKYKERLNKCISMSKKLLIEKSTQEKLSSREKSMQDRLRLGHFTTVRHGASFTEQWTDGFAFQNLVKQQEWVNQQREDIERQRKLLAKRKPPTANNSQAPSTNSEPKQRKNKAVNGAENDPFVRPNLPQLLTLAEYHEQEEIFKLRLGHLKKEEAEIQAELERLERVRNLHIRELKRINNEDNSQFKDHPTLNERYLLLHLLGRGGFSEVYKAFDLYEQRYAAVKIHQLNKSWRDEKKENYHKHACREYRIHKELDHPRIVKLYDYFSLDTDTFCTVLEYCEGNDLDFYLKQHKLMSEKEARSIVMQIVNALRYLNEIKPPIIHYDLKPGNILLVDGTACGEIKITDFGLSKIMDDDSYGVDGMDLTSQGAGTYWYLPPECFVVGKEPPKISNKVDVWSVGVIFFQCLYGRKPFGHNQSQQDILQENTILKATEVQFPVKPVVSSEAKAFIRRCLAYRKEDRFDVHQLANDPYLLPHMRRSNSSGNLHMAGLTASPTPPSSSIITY

kinome (kinase panel) [32] = molecular target: T32, kinome (kinase panel) (Homo sapiens, UniProt Q9UQ88); conditions: CDC2L2; 1000 nM; read-out: Percent Control
T32 construct: purchased Eurofins DiscoverX
T32 sequence (Q9UQ88 whole entry): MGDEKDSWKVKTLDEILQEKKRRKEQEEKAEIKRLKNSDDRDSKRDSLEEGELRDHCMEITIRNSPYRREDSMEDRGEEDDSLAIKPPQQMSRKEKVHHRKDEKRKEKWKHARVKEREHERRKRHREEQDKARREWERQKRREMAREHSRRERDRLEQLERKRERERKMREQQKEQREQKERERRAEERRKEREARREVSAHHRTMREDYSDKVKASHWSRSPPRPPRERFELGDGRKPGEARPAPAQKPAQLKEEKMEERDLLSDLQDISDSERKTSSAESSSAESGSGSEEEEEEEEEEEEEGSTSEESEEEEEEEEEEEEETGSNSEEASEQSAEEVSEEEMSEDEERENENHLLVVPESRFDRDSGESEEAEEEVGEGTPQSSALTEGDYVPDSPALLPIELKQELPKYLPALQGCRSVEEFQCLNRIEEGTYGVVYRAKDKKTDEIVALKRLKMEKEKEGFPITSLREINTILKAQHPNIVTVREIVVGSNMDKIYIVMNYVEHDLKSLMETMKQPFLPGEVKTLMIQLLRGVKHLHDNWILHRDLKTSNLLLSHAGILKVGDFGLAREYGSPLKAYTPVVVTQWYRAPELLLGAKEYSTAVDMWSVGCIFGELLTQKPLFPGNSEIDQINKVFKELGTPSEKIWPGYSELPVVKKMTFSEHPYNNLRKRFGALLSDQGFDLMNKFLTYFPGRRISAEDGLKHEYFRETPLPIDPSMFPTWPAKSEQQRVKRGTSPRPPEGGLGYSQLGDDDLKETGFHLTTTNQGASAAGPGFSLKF

With `CN(C)C(=O)c1cc2cnc(Nc3ccc(-c4csc5c(=O)cc(N6CCOCC6)oc45)cc3)nc2n1C1CCCC1` [SRX3177] the remaining binding at 1 µM (kinome (kinase panel) [1]) was 84%, the remaining binding at 1 µM (kinome (kinase panel) [2]) was 71% and the remaining binding at 1 µM (kinome (kinase panel) [3]) was 98%. It also gave a remaining binding at 1 µM (kinome (kinase panel) [4]) of 48%, a remaining binding at 1 µM (kinome (kinase panel) [5]) of 88% and a remaining binding at 1 µM (kinome (kinase panel) [6]) of 84%. For the same molecule, the “Percent Control” value (kinome (kinase panel) [7]) was 52, the remaining binding at 1 µM (kinome (kinase panel) [7]; read-out: Percent Control) was 57% and the remaining binding at 1 µM (kinome (kinase panel) [8]) was 100%. For the same molecule, the remaining binding at 1 µM (kinome (kinase panel) [9]) was 76%, the remaining binding at 1 µM (kinome (kinase panel) [10]) was 80% and the remaining binding at 1 µM (kinome (kinase panel) [11]) was 56%. For the same molecule, the remaining binding at 1 µM (kinome (kinase panel) [12]) was 97%, the remaining binding at 1 µM (kinome (kinase panel) [13]) was 96% and the remaining binding at 1 µM (kinome (kinase panel) [14]) was 76%. It also gave a remaining binding at 1 µM (kinome (kinase panel) [15]) of 100%, a remaining binding at 1 µM (kinome (kinase panel) [16]) of 85% and a remaining binding at 1 µM (kinome (kinase panel) [17]) of 2.4%. The remaining binding at 1 µM (kinome (kinase panel) [18]) was 92%, the remaining binding at 1 µM (kinome (kinase panel) [19]) was 89% and the remaining binding at 1 µM (kinome (kinase panel) [20]) was 65%. For the same molecule, the remaining binding at 1 µM (kinome (kinase panel) [21]) was 100%, the remaining binding at 1 µM (kinome (kinase panel) [22]) was 100% and the remaining binding at 1 µM (kinome (kinase panel) [23]; RSK3(Kin.Dom.1-N-terminal) (RPS6KA2)) was 80%. It also gave a remaining binding at 1 µM (kinome (kinase panel) [23]; RSK3(Kin.Dom.2-C-terminal) (RPS6KA2)) of 74%, a remaining binding at 1 µM (kinome (kinase panel) [24]) of 5.4% and a remaining binding at 1 µM (kinome (kinase panel) [25]) of 100%. It also gave a remaining binding at 1 µM (kinome (kinase panel) [26]) of 56%, a remaining binding at 1 µM (kinome (kinase panel) [27]) of 100% and a remaining binding at 1 µM (kinome (kinase panel) [28]) of 100%. For the same molecule, the remaining binding at 1 µM (kinome (kinase panel) [29]) was 100%, the remaining binding at 1 µM (kinome (kinase panel) [30]) was 92% and the remaining binding at 1 µM (kinome (kinase panel) [31]) was 94%. The remaining binding at 1 µM (kinome (kinase panel) [32]) was 93%.
